Data published in ChEMBL document CHEMBL4130599, “VU6010608, a Novel mGlu7 NAM from a Series of N-(2-(1H-1,2,4-Triazol-1-yl)-5-(trifluoromethoxy)phenyl)benzamides” (ACS Med Chem Lett, 2017).
Activity calls are given as the source filed them. The rule behind the calls is not given here.

Key:
[1] = Protein binding in rat brain assessed as unbound fraction measured after 6 hrs by LC-MS/MS based equilibrium dialysis method; format: ADME, tissue-based
[2] = Protein binding in mouse plasma assessed as unbound fraction measured after 4 hrs by LC-MS/MS based equilibrium dialysis method; format: ADME, cell-free
[3] = Brain to plasma partition coefficient, Kp of the compound in cannulated Sprague-Dawley rat at 0.2 to 0.25 mg/kg, iv administered as cassette dose measured after 0.25 hrs by LC-MS/MS analysis; format: ADME, organism-based; details: brain and plasma
[4] = Protein binding in rat plasma assessed as unbound fraction measured after 4 hrs by LC-MS/MS based equilibrium dialysis method; format: ADME, cell-free
[5] = Unbound brain to plasma concentration ratio in cannulated Sprague-Dawley rat at 0.2 to 0.25 mg/kg, iv administered as cassette dose measured after 0.25 hrs by LC-MS/MS analysis; format: ADME, organism-based; details: brain and plasma, read-out: K(p,uu,brain)
[6] = molecular target: T1, Metabotropic glutamate receptor 2 (Homo sapiens, UniProt Q14416); experiment: Antagonist activity at mGlu2 receptor (unknown origin); format: functional
[7] = Unbound brain to plasma concentration ratio in C57/Bl6 mouse at 30 mg/kg, ip measured after 0.5 hrs by LC-MS/MS analysis; format: ADME, organism-based; details: brain and plasma, read-out: K(p,uu,brain)
[8] = Clearance in cannulated Sprague-Dawley rat at 0.2 to 0.25 mg/kg, iv administered as cassette dose by LC-MS/MS analysis; format: ADME, organism-based; details: in vivo
[9] = Unbound brain to plasma concentration ratio in C57/Bl6 mouse at 10 mg/kg, ip measured after 0.5 hrs by LC-MS/MS analysis; format: ADME, organism-based; details: brain and plasma, read-out: K(p,uu,brain)
[10] = molecular target: T2, Metabotropic glutamate receptor 6 (Homo sapiens, UniProt O15303); experiment: Antagonist activity at mGlu6 receptor (unknown origin); format: functional
[11] = Drug level in C57/Bl6 mouse brain at 10 mg/kg, ip by LC-MS/MS analysis; format: ADME, organism-based; details: in vivo, read-out: Drug uptake
[12] = Unbound drug level in C57/Bl6 mouse brain assessed as unbound fraction at 30 mg/kg, ip by LC-MS/MS analysis; format: ADME, organism-based; details: in vivo
[13] = Unbound drug level in C57/Bl6 mouse brain assessed as unbound fraction at 10 mg/kg, ip by LC-MS/MS analysis; format: ADME, organism-based; details: in vivo
[14] = molecular target: T3, Metabotropic glutamate receptor 5 (Homo sapiens, UniProt P41594); experiment: Agonist activity at mGlu5 receptor (unknown origin); format: functional
[15] = Brain to plasma partition coefficient, Kp of the compound in C57/Bl6 mouse at 30 mg/kg, ip measured after 0.5 hrs by LC-MS/MS analysis; format: ADME, organism-based; details: brain and plasma
[16] = Drug level in C57/Bl6 mouse brain at 100 mg/kg, ip by LC-MS/MS analysis; format: ADME, organism-based; details: in vivo, read-out: Drug uptake
[17] = molecular target: T4, Metabotropic glutamate receptor 1 (Homo sapiens, UniProt Q13255); experiment: Agonist activity at mGlu1 receptor (unknown origin); format: functional
[18] = molecular target: T5, Metabotropic glutamate receptor 3 (Homo sapiens, UniProt Q14832); experiment: Antagonist activity at mGlu3 receptor (unknown origin); format: functional
[19] = Drug level in C57/Bl6 mouse plasma at 30 mg/kg, ip by LC-MS/MS analysis; format: ADME, organism-based; details: in vivo
[20] = molecular target: T6, Metabotropic glutamate receptor 8 (Rattus norvegicus, UniProt P70579); experiment: Agonist activity at rat mGlu8 expressed in HEK cells co-expressing Galpha15 measured after 142 secs by Fluo-4 AM dye based calcium flux assay; format: functional, cell-based
[21] = Oral bioavailability in cannulated Sprague-Dawley rat; format: ADME, organism-based; details: in vivo
[22] = molecular target: T1, Metabotropic glutamate receptor 2; experiment: Agonist activity at mGlu2 receptor (unknown origin); format: functional
[23] = molecular target: T4, Metabotropic glutamate receptor 1; experiment: Antagonist activity at mGlu1 receptor (unknown origin); format: functional
[24] = molecular target: T5, Metabotropic glutamate receptor 3; experiment: Agonist activity at mGlu3 receptor (unknown origin); format: functional
[25] = molecular target: T7, Metabotropic glutamate receptor 4 (Homo sapiens, UniProt Q14833); experiment: Agonist activity at human mGlu4 expressed in CHO cells co-expressing Gqi5 after 142 secs by Fluo-4AM dye based calcium flux assay; format: functional, cell-based
[26] = Unbound drug level in C57/Bl6 mouse plasma at 10 mg/kg, ip by LC-MS/MS analysis; format: ADME, organism-based; details: in vivo
[27] = Unbound brain to plasma concentration ratio in C57/Bl6 mouse at 100 mg/kg, ip measured after 0.5 hrs by LC-MS/MS analysis; format: ADME, organism-based; details: brain and plasma, read-out: K(p,uu,brain)
[28] = Volume of distribution at steady state in cannulated Sprague-Dawley rat at 0.2 to 0.25 mg/kg, iv administered as cassette dose by LC-MS/MS analysis; format: ADME, organism-based; details: in vivo, read-out: Vdss
[29] = system: Mus musculus; experiment: Toxicity in C57/Bl6 mouse at 100 mg/kg, ip; format: organism-based; details: in vivo
[30] = Brain to plasma partition coefficient, Kp of the compound in C57/Bl6 mouse at 10 mg/kg, ip measured after 0.5 hrs by LC-MS/MS analysis; format: ADME, organism-based; details: brain and plasma
[31] = Drug metabolism in rat hepatic S9 fraction assessed as amide hydrolysis after 60 mins in presence of NADPH/UDPGA/PAPS by LC/MS analysis; format: ADME, subcellular, Liver; details: s9, 1 h
[32] = molecular target: T7, Metabotropic glutamate receptor 4; experiment: Antagonist activity at human mGlu4 expressed in CHO cells co-expressing Gqi5 assessed as reduction in L-AP4-induced intracellular calcium flux pretreated for 142 secs followed by glutamate addition and subsequent stimulation of L-AP4 for 40 secs by Fluo-4 AM dye based fluorescence assay; format: functional, cell-based
[33] = Brain to plasma partition coefficient, Kp of the compound in C57/Bl6 mouse at 100 mg/kg, ip measured after 0.5 hrs by LC-MS/MS analysis; format: ADME, organism-based; details: brain and plasma
[34] = Drug level in C57/Bl6 mouse brain at 30 mg/kg, ip by LC-MS/MS analysis; format: ADME, organism-based; details: in vivo, read-out: Drug uptake
[35] = molecular target: T2, Metabotropic glutamate receptor 6; experiment: Agonist activity at mGlu6 receptor (unknown origin); format: functional
[36] = molecular target: T6, Metabotropic glutamate receptor 8; experiment: Antagonist activity at rat mGlu8 expressed in HEK cells co-expressing Galpha15 assessed as reduction in L-AP4-induced intracellular calcium flux pretreated for 142 secs followed by glutamate addition and subsequent stimulation of L-AP4 for 40 secs by Fluo-4 AM dye based fluorescence assay; format: functional, cell-based
[37] = system: Brain; experiment: Blockade of high-frequency stimulation-induced long-term potentiation at SC-CA1 synapses in C57BL/6J mouse brain slices at 10 uM pretreated for 10 mins followed by high-frequency stimulation measured up to 60 mins; format: functional, tissue-based
[38] = Unbound drug level in C57/Bl6 mouse plasma assessed as unbound fraction at 30 mg/kg, ip by LC-MS/MS analysis; format: ADME, organism-based; details: in vivo
[39] = Unbound drug level in C57/Bl6 mouse brain assessed as unbound fraction at 100 mg/kg, ip by LC-MS/MS analysis; format: ADME, organism-based; details: in vivo
[40] = Half life in cannulated Sprague-Dawley rat at 0.2 to 0.25 mg/kg, iv administered as cassette dose by LC-MS/MS analysis; format: ADME, organism-based; details: in vivo
[41] = molecular target: T3, Metabotropic glutamate receptor 5; experiment: Antagonist activity at mGlu5 receptor (unknown origin); format: functional
[42] = Unbound drug level in C57/Bl6 mouse plasma assessed as unbound fraction at 100 mg/kg, ip by LC-MS/MS analysis; format: ADME, organism-based; details: in vivo
[43] = Drug level in C57/Bl6 mouse plasma at 10 mg/kg, ip by LC-MS/MS analysis; format: ADME, organism-based; details: in vivo
[44] = molecular target: Metabotropic glutamate receptor 7 (Rattus norvegicus, UniProt P35400); experiment: Negative allosteric modulation of rat mGlu7 expressed in HEK cells co-expressing Galpha15 assessed as reduction in L-AP4-induced intracellular calcium flux pretreated for 142 secs followed by glutamate addition and subsequent stimulation of L-AP4 for 40 secs by Fluo-4 AM dye based fluorescence assay; format: functional, cell-based
Metabotropic glutamate receptor 7, sequence (P35400 whole entry): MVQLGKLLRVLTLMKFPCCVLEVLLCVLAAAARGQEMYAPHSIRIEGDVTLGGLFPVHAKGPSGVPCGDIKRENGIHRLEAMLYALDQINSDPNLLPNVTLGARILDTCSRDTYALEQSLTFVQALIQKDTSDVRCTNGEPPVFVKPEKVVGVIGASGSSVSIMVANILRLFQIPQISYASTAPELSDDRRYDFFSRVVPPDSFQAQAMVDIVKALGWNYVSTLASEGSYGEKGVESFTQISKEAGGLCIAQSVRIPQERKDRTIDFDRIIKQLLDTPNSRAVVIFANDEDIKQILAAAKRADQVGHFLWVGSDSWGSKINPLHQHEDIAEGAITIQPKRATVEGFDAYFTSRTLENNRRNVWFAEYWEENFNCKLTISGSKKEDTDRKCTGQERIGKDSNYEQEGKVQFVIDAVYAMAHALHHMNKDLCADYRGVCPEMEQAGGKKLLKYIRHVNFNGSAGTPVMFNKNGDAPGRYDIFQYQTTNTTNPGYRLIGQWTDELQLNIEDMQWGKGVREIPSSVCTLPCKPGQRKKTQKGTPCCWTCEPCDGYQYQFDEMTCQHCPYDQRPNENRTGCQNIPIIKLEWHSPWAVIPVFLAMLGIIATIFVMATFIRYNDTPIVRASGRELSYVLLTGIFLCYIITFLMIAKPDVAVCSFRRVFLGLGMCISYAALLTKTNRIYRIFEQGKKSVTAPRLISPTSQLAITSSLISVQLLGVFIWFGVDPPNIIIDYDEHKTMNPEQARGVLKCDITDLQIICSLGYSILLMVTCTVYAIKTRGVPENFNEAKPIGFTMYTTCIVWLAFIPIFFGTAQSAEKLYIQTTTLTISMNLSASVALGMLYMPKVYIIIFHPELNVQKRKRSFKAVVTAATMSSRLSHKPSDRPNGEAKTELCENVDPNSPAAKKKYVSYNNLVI

T7 sequence (Q14833 whole entry): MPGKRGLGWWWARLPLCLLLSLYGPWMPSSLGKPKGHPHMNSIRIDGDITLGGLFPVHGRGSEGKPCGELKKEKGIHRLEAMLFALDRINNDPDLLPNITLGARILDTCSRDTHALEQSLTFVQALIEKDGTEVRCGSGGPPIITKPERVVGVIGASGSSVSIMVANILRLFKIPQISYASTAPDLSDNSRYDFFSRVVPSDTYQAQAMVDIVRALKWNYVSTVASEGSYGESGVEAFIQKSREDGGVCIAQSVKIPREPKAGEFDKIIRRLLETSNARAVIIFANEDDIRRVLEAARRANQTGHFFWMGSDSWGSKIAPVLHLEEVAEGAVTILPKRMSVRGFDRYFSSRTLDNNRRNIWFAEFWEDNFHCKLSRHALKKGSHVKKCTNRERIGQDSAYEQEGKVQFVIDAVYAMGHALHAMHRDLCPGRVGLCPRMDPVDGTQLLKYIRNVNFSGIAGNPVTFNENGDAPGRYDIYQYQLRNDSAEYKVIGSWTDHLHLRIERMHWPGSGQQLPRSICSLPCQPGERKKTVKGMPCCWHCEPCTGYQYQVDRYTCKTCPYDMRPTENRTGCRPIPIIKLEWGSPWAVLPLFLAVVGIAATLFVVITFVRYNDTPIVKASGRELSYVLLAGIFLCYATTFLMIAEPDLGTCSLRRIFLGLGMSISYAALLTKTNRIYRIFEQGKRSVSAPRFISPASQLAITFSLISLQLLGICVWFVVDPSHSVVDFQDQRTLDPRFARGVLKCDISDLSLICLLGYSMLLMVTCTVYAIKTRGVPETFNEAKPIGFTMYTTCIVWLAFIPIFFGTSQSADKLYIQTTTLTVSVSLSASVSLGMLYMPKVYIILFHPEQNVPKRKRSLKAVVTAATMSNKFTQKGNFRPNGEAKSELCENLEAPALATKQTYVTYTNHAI
T6 sequence (P70579 whole entry): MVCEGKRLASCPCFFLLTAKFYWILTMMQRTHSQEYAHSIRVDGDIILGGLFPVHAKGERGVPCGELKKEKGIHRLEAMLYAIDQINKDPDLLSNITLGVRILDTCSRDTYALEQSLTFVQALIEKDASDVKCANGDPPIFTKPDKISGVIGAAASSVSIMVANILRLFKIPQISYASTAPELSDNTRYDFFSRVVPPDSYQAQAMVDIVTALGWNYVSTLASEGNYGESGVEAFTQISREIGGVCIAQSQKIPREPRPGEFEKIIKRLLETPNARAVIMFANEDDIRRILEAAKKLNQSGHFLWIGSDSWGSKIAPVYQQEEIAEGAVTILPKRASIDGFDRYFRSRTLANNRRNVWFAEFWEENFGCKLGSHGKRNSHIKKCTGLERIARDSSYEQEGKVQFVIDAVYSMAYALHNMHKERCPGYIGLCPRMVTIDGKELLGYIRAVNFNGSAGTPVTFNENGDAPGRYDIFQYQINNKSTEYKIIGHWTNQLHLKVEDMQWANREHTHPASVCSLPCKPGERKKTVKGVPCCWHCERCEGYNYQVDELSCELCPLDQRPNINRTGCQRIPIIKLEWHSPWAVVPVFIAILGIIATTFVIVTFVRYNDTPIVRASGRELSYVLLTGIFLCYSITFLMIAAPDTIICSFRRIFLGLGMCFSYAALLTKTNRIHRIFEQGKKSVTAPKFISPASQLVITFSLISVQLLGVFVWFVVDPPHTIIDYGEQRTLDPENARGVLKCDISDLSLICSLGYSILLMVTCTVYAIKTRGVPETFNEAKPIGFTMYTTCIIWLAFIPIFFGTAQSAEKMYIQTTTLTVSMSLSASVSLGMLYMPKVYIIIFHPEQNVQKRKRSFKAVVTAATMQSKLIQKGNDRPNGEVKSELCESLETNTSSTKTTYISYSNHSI
T5 sequence (Q14832 whole entry): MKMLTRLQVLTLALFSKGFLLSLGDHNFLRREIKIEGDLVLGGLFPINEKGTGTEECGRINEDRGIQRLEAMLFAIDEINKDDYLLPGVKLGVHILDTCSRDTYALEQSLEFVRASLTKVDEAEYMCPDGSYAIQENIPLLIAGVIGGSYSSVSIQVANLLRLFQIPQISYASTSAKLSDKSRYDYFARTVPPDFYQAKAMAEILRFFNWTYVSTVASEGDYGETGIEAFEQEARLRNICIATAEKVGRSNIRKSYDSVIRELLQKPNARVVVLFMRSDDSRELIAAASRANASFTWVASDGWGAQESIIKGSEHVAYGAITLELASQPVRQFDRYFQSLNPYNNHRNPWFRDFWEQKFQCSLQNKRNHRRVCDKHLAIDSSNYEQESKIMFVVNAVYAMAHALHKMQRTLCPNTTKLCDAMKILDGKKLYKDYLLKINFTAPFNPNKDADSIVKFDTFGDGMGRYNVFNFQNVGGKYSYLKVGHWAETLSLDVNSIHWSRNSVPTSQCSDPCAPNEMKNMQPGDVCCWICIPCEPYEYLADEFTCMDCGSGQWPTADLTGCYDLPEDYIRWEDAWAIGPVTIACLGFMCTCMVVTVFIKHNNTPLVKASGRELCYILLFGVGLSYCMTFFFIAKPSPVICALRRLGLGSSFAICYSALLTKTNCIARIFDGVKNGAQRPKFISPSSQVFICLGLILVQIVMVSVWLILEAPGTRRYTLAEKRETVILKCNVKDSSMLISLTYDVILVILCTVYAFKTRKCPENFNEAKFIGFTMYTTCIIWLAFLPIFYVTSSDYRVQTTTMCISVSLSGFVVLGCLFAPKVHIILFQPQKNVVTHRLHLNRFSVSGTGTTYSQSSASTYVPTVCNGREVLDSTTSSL
T2 sequence (O15303 whole entry): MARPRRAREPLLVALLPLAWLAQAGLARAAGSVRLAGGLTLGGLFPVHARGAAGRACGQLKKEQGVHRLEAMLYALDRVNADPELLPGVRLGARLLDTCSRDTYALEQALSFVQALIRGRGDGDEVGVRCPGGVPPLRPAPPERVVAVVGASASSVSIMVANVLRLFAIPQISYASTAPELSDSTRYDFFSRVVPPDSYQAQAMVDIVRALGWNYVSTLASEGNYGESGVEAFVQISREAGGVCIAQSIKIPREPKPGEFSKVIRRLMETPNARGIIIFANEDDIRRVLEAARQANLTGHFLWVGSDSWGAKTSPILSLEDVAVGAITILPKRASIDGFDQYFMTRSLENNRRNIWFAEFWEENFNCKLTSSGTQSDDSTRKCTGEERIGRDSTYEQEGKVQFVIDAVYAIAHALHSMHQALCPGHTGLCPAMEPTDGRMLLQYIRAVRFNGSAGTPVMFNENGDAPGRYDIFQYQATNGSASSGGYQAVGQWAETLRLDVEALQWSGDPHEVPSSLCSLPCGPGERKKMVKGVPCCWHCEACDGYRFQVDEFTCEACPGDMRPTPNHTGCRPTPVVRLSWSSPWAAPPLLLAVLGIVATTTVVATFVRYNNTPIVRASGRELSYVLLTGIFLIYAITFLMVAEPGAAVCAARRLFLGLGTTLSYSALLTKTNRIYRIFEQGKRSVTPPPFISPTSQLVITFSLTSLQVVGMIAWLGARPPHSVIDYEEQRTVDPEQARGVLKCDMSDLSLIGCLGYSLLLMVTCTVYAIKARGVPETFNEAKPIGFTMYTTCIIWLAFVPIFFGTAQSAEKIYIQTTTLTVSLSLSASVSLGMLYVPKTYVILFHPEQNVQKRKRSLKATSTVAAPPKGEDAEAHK

CCCOc1ccc(C(=O)Nc2cc(OC(F)(F)F)ccc2-n2cncn2)cc1OC
fraction unbound at 6 h [1]: 0.009 | fraction unbound at 4 h [2]: 0.019 | Kp at 0.25 h [3]: 1.9 | fraction unbound at 4 h [4]: 0.017 | Kp uu at 0.25 h [5]: 1

COc1ccc(C(=O)Nc2cc(OC(F)(F)F)ccc2-n2cncn2)cc1OC
IC50 [6]: > 10 µM | Kp uu at 0.5 h [7]: 0.51 | clearance [8]: 3.85 L/h/kg | Kp uu at 0.5 h [9]: 0.44 | IC50 [10]: > 10 µM | concentration [11]: 0.38 µM | Drug uptake(free) [12]: 36.2 nM | Drug uptake(free) [13]: 14.3 nM | EC50 [14]: > 10 µM | Kp at 0.5 h [15]: 2.36 | concentration [16]: 1.55 µM | EC50 [17]: > 10 µM | IC50 [18]: > 10 µM | concentration [19]: 0.402 µM | EC50 [20]: > 10 µM | bioavailability [21]: 18.9% | EC50 [22]: > 10 µM | fraction unbound at 6 h [1]: 0.034 | IC50 [23]: > 10 µM | EC50 [24]: > 10 µM | EC50 [25]: > 10 µM | Cp(f) [26]: 0.0325 µM | Kp uu at 0.5 h [27]: 0.43 | Vd [28]: 6.2 L/kg | fraction unbound at 4 h [2]: 0.178 | Activity [29]: Non-Toxic | Kp at 0.5 h [30]: 2.01 | Drug metabolism [31]: Metabolite_Detected | IC50 [32]: > 10 µM | Kp at 0.5 h [33]: 2 | concentration [34]: 0.952 µM | EC50 [35]: > 10 µM | IC50 [36]: > 10 µM | Activity [37]: Active | Cp(f) [38]: 0.0715 µM | Kp at 0.25 h [3]: 3.4 | Drug uptake(free) [39]: 59 nM | half-life [40]: 1.73 h | Fu ([4]; 4 h): 0.244 | Kp uu at 0.25 h [5]: 0.48 | IC50 [41]: > 10 µM | Cp(f) [42]: 0.137 µM | concentration [43]: 0.18 µM

COc1cc(C(=O)Nc2cc(OC(F)(F)F)ccc2-n2cncn2)ccc1OC(C)C
fraction unbound at 6 h [1]: 0.013 | fraction unbound at 4 h [2]: 0.063 | Kp at 0.25 h [3]: 4.4 | fraction unbound at 4 h [4]: 0.065 | Kp uu at 0.25 h [5]: 0.89

CCc1nc2c(o1)CC(c1ccc(C)cc1C)CC2=O (stereo not given)
Activity [29]: Non-Toxic | IC50 [44]: 0.676 µM

COc1cc(C(=O)Nc2cc(OC(F)(F)F)ccc2-n2cncn2)ccc1OC1CCCC1
IC50 [44]: 1.4 µM

CCOc1ccc(C(=O)Nc2cc(OC(F)(F)F)ccc2-n2cncn2)cc1OC
fraction unbound at 6 h [1]: 0.017 | fraction unbound at 4 h [2]: 0.086 | Kp at 0.25 h [3]: 3.5 | fraction unbound at 4 h [4]: 0.072 | Kp uu at 0.25 h [5]: 0.83

COc1cc(C(=O)Nc2cc(OC(F)(F)F)ccc2-n2cncn2)ccc1OC1CC1
fraction unbound at 6 h [1]: 0.013 | fraction unbound at 4 h [2]: 0.039 | IC50 [44]: 0.71 µM | Kp at 0.25 h [3]: 5.8 | fraction unbound at 4 h [4]: 0.052 | Kp uu at 0.25 h [5]: 1.5

COc1ccc(C(=O)Nc2cc(Cl)ccc2-n2cncn2)cc1OC
IC50 [32]: > 30 µM | IC50 [44]: 5.8 µM | IC50 [36]: > 30 µM
